Entries after “also recorded” stand apart in the source; their conditions may differ.
Legend:
histone H3 in serum [1] = assay: Serum histone H3 by Western blot in LPS-induced septic shock mice treated with or without SAHA; assay type: in vivo; settings: blood 3 h after LPS
Protocol: To assure that the data were reliable, independent serum samples were collected and analyzed. As in a previous study (Li et al., Shock. 2009; 32(5): 517-523), male C57B1/6J mice (n=9, 3/group) weighing 25-30 g (purchased from Jackson Labs (Bar Harbor, Me.)) were randomly divided into two groups: LPS control, and SAHA+LPS. Normal saline (10 μl/g body weight) or LPS (20 mg/kg) dissolved in normal saline was injected intraperitoneally. The mice were given DMSO (1 μl/g body weight) or SAHA (50 mg/kg) dissolved in DMSO intraperitoneally 2 hours (h) before, and then soon after injection of LPS. Sham mice (no LPS, no SAHA) were used as the control. Serum separated from these blood samples was saved at −80° C. and used for the current experiment. In the present study, a large dose (35 mg/kg) or a small dose (10 mg/kg) of LPS was administrated intraperitoneally. […] Survival rate was then recorded for over the next 7 days. […]
The samples were analyzed by Western blot with anti-histone H3 antibody. […] The primary antibody was detected by incubation with horseradish peroxidase-coupled second antibody (1:3,000 in PBST with 5% milk) at room temperature for 2 h. […] Films were developed using a standard photographic procedure and quantitative analysis of detected bands was carried out by densitometer scanning using VersaDoc Imaging System (BioRad Laboratories, Hercules, Calif.).

histone H3 in serum [2] = assay: iTRAQ screen for serum biomarkers in LPS-induced septic shock and SAHA treatment; assay type: in vivo; settings: LPS-induced septic shock; 5 h after first SAHA treatment, 3 h after LPS injection
Protocol: To identify biomarkers of septic shock and treatment, isobaric tag labeling for relative and absolute quantitation (iTRAQ) was performed as described in WO 2010/126635 (which is incorporated herein by reference) in sham (no LPS and no treatment), septic shock (3 h after LPS injection) and SAHA treated (5 h after the first SAHA treatment, and 3 h after LPS injection) animals. Several potential serum biomarkers in LPS-induced septic shock and treatment were found. One of them was histone H3, a chromatin protein in nucleus.

HL-60 granulocytes = assay: Western blots of H3, Ac H3 and Cit H3 in lysates and medium of LPS-stimulated HL-60 granulocytes; assay type: cell-based, human; settings: 3 h
Protocol: Neutrophils might be a source of serum histone H3 during sepsis. To test whether histone H3 deimination/citrullination is induced as part of the neutrophil response to bacterial endotoxin, HL-60 cells obtained from American Type Culture Collection (ATCC) were maintained in Iscove's modified DMEM medium (Invitrogen Life Technologies, Carlsbad, Calif.) supplemented with 20% fetal bovine serum (FBS). These cells were grown at 37° C. in a humidified incubator in 5% CO2 and 95% air, and differentiated into granulocytes by culturing the cells in medium containing 1 μM ATRA for 3 days. The ATRA-differentiated HL-60 granulocytes were treated with 4 μM calcium ionophore in medium containing 1.5 mM calcium chloride, and then incubated with LPS (100 ng/ml) in the presence or absence of SAHA (10 μM) over 3 h. Following incubation, medium was collected, and cell lysates were prepared. The medium and the lysates were tested for H3, Ac H3, Cit H3 and actin (internal control) by Western blots. To ensure there was no false positive data that may be produced from the medium with dead cells, the cells were carefully treated and a sham group was also set up as a control.

[3] = test system: rodent models of LPS-induced septic shock; settings: rodent models of LPS-induced septic shock (Li et al. 2009, 2010); cited from earlier work
mice = assay: Survival of mice after small or large dose of LPS; assay type: in vivo; settings: for survival rate: 7 day observation
Protocol: To assure that the data were reliable, independent serum samples were collected and analyzed. As in a previous study (Li et al., Shock. 2009; 32(5): 517-523), male C57B1/6J mice (n=9, 3/group) weighing 25-30 g (purchased from Jackson Labs (Bar Harbor, Me.)) were randomly divided into two groups: LPS control, and SAHA+LPS. Normal saline (10 μl/g body weight) or LPS (20 mg/kg) dissolved in normal saline was injected intraperitoneally. The mice were given DMSO (1 μl/g body weight) or SAHA (50 mg/kg) dissolved in DMSO intraperitoneally 2 hours (h) before, and then soon after injection of LPS. Sham mice (no LPS, no SAHA) were used as the control. Serum separated from these blood samples was saved at −80° C. and used for the current experiment. In the present study, a large dose (35 mg/kg) or a small dose (10 mg/kg) of LPS was administrated intraperitoneally. All animals were housed in plastic cages and had access to chow and water throughout the experiment. The animals were kept at room temperature (24±2° C.) and exposed to alternative cycles of 12 h light and darkness. Survival rate was then recorded for over the next 7 days. Blood was collected from the orbital sinus (as described in Hoff, Lab Animal. 2000; 29(10): 47-53) at 3 h after LPS injection.
It has been reported that the effects of LPS on lethality and protein expression are dose-dependent (Barton and Jackson, Infect Immun. 1993; 61(4): 1496-1499; Haque et al., Pneumon. 2009; 22(2): 143-155). To determine whether serum levels of H3, Cit H3 and acetylated H3 were dependent on the LPS dose, the mice were injected with a small dose ([…]) or a large dose ([…]). The serum levels of all three histone H3 were then measured and correlated to mortality. Mice were randomly divided into three groups (n=10/group): (1) sham group (no LPS), (2) LPS small dose (SD) group, and (3) LPS large dose (LD) group. Blood was collected at 3 h after LPS injection and serum was prepared for immunoblotting.

serum Cit H3 and H3 = assay: Serum Cit H3, H3 and Ac H3 by Western blot after small or large dose of LPS; assay type: in vivo, mice; settings: 3 h after injection
Protocol: The samples were analyzed by Western blot with anti-histone H3 antibody. Western blot analysis was performed as follows. Proteins (about 100 μg per lane) were separated by sodium dodecyl sulphate-polyacrylamide gel electrophoresis (SDS-PAGE) on 15% polyacrylamide gels and transferred onto nitrocellulose membranes (Bio-Rad Laboratories, Hercules, Calif.). The membranes were blocked in 0.05% PBS-Tween (PBST) containing 5% milk (Bio-Rad Laboratories, Hercules, Calif.) and then incubated with the primary antibody at 4° C. overnight. The primary antibody was detected by incubation with horseradish peroxidase-coupled second antibody (1:3,000 in PBST with 5% milk) at room temperature for 2 h. The chemiluminescence detection was performed by using WesternLighting Chemiluminescence Reagent Plus (PerkinElmer LAS, Inc., Boston, Mass.). Films were developed using a standard photographic procedure and quantitative analysis of detected bands was carried out by densitometer scanning using VersaDoc Imaging System (BioRad Laboratories, Hercules, Calif.).
It has been reported that the effects of LPS on lethality and protein expression are dose-dependent (Barton and Jackson, Infect Immun. 1993; 61(4): 1496-1499; Haque et al., Pneumon. 2009; 22(2): 143-155). […] The serum levels of all three histone H3 were then measured and correlated to mortality. […]

TNF-α = assay: Serum TNF-α ELISA after small or large dose of LPS; assay type: in vivo, mice; settings: 3 h after endotoxin insult
Protocol: There is general agreement that the main pathogenic mediator in lethal septic shock is TNF-α (Beutler and Cerami, Annu Rev Immunol. 7: 625-55, 1989). To determine whether TNF-α can predict lethality of LPS-induced shock as well as Cit H3, blood was collected from sham, LPS (SD), and LPS (LD) groups at 3 h after LPS injection (n=5/group). Quantitative determination of TNF-α in the blood of mice was made using Quantikine Enzyme-Linked Immunosorbent Assay (ELISA) Kit (R&D Systems, Minneapolis, Minn.) according to manufacturer's instruction. The concentration of the cytokine was measured by optical densitometry at 450 nm in a SpectramaxPlus 384 microplate reader (Molecular Devices, Sunnyvale, Calif.). All of the analyses were performed in triplicates.

With `O=C(CCCCCCC(=O)Nc1ccccc1)NO` [SAHA, suberoylanilide hydroxamic acid] the “serum histone H3 (Western blot)” value (histone H3 in serum [1]; SAHA 50 mg/kg i.p. 2 h before and soon after LPS 20 mg/kg) was “no histone H3 was detected”, the “histone H3 in serum (iTRAQ)” value (histone H3 in serum [2]) was “decreased histone H3 in serum dramatically” and the “Cit H3 in cultured cell medium (secretion)” value (HL-60 granulocytes; SAHA 10 μM + LPS 100 ng/ml) was “decreases; also recorded: no detectable”. For the same compound, the “H3 in cultured cell medium” value (HL-60 granulocytes; SAHA 10 μM + LPS 100 ng/ml) was “no detectable”, the “acetylated H3 in cell lysates” value (HL-60 granulocytes; SAHA 10 μM + LPS 100 ng/ml) was “increase” and the “expression of Cit H3 in cell lysates” value (HL-60 granulocytes; SAHA 10 μM + LPS 100 ng/ml) was “decreases; also recorded: significantly reduced”. For the same compound, the survival [3] was “improves survival”.

In the case of lipopolysaccharide [LPS], the “serum histone H3 (Western blot)” value (histone H3 in serum [1]; LPS 20 mg/kg i.p. without SAHA) is reported as “a histone H3 band was clearly observed”, the “Cit H3 in cultured cell medium” value (HL-60 granulocytes; LPS 100 ng/ml) is reported as “more” and the “H3 in cultured cell medium” value (HL-60 granulocytes; LPS 100 ng/ml) is reported as “more”. For the same compound, the “Cit H3 in cell lysates” value (HL-60 granulocytes; LPS 100 ng/ml, compared to sham) was “increase”, the average survival time (mice; LPS LD (35 mg/kg i.p.)) was “about 20 h” and the “earliest time of death” value (mice; LPS LD (35 mg/kg i.p.)) was roughly 16 h. For the same compound, the longest survival time (mice; LPS LD (35 mg/kg i.p.)) was 23 h, the “time by which all mice died” value (mice; LPS LD (35 mg/kg i.p.)) was “less than 23 h” and the survival rate (mice; LPS LD (35 mg/kg i.p.)) was 0%. The “Mice died within 23 h” value (mice; LPS LD (35 mg/kg i.p.), n = 10) was 10, the average survival time (mice; LPS SD (10 mg/kg i.p.)) was roughly 146 h and the “earliest time of death” value (mice; LPS SD (10 mg/kg i.p.)) was 27 h. For the same compound, the survival rate (mice; LPS SD (10 mg/kg i.p.)) was 90%, the longest survival time (mice; LPS SD (10 mg/kg i.p.), 168 h observation) was 168 h and the “Mice died within 23 h” value (mice; LPS SD (10 mg/kg i.p.), n = 10) was “None”. The “Mice survived over 168 h” value (mice; LPS SD (10 mg/kg i.p.), n = 10) was 9, the “Serum H3” value (serum Cit H3 and H3; LPS SD (10 mg/kg i.p.)) was “increase” and the “serum Ac H3” value (serum Cit H3 and H3; all animals (LPS SD and LD)) was “No Ac H3 was detected”. For the same compound, the “serum TNF-α” value (TNF-α; LPS LD (35 mg/kg)) was 792 pg/mL and the “serum TNF-α” value (TNF-α; LPS SD (10 mg/kg)) was 741 pg/mL.
